# Test results published in patent publication US11905281B2 (Amgen Inc., priority 2017, dated 2024).
# Like-named read-outs stand apart in the source and are kept apart here.
# Tests used:
# [1] = tested on: Phosphorylation of ERK1/2 in MIA PaCa-2 cells; assay: Phospho-ERK1/2 MSD Assay, MIA PaCa-2 (Table 16 conditions: 2 hours compound treatment); assay type: cell-based; conditions: 10 ng/mL EGF for 10 min, read-out: p-ERK IC50 (MIA PaCa-2)
# Method: (§1) For compounds in Table 16, the following assay conditions were employed:
# Sixteen hours prior to compound treatment, MIA PaCa-2 or A549 cells were seeded in 96-well cell culture plates at a density of 25,000 cells/well and incubated at 37° C., 5% CO2. A compound dose-response titration was diluted in growth media, added to appropriate wells of a cell culture plate, and then incubated at 37° C., 5% CO2 for 2 hours. […] Phosphorylation of ERK1/2 in compound-treated lysates was assayed using Phospho-ERK1/2 Whole Cell Lysate kits (Meso Scale Discovery K151DWD) according to the manufacturer's protocol. Assay plates were read on a Meso Scale Discovery Sector Imager 6000, and data were analyzed using a 4-parameter logistic model to calculate IC50 values.
# [2] = molecular target: GDP-bound KRAS protein (aa 1-169), containing both G12C and C118A amino acid substitutions (Homo sapiens, UniProt P01116, C118A/G12C); assay: Coupled Nucleotide Exchange Assay (Table 16 conditions: 5 min pre-incubation); assay type: biochemical; conditions: 5 min compound pre-incubation; SOS-mediated nucleotide exchange, AlphaScreen
# Chain of GDP-bound KRAS protein (aa 1-169), containing both G12C and C118A amino acid substitutions (P01116 1-169 isoform P01116-2 G12C/C118A): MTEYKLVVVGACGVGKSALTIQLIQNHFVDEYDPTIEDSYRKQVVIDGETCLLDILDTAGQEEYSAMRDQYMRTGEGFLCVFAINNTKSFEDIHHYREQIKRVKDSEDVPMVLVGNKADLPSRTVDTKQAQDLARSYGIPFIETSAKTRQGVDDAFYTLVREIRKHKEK
# Method: as §1
# The assay plates were then read on a PerkinElmer EnVision Multilabel Reader, using AlphaScreen® technology, and data were analyzed using a 4-parameter logistic model to calculate IC50 values.
# [3] = Homo sapiens, MIA PaCa-2, MIA PaCa-2 cells
smiles,measurement,setting,value
"C=CC(=O)N1CCN(c2nc(=O)n(-c3c(C)cnn3C(C)C)c3nc(-c4ccccc4F)c(Cl)cc23)[C@@H](C)C1 [Example 53, 6-Chloro-7-(2-fluorophenyl)-1-(4-methyl-1-(2-propanyl)-1H-pyrazol-5-yl)-4-((2S)-2-methyl-4-(2-propenoyl)-1-piperazinyl)pyrido[2,3-d]pyrimidin-2(1H)-one]",IC50,[1]; MIA PaCa-2 cells,71 nM
same,IC50,[2],125 nM
"C=CC(=O)N1CCN(c2nc(=O)n(-c3c(CC)ncnc3CC)c3nc(-c4ccccc4F)c(Cl)cc23)[C@@H](C)C1 [Example 47, 6-Chloro-1-(4,6-diethyl-5-pyrimidinyl)-7-(2-fluorophenyl)-4-((2S)-2-methyl-4-(2-propenoyl)-1-piperazinyl)pyrido[2,3-d]pyrimidin-2(1H)-one]",IC50,[1]; [3],152 nM
same,IC50,[2],409 nM
"C=CC(=O)N1CCN(c2nc(=O)n(-c3c(C)ccnc3C3CC3)c3nc(-c4ccccc4F)c(Cl)cc23)[C@@H](C)C1 (single isomer, unassigned) [Example 45-1]",IC50,[1]; MIA PaCa-2 cells,49 nM
same,IC50,[2],89 nM
"C=CC(=O)N1CCN(c2nc(=O)n(-c3c(C)ccnc3C3CC3)c3nc(-c4ccccc4F)c(Cl)cc23)[C@@H](C)C1 (single isomer, unassigned) [Example 45-2]",IC50,[1]; MIA PaCa-2 cells,435 nM
same,IC50,[2],727 nM
C=CC(=O)N1CCN(c2nc(=O)n(-c3c(C)ccnc3C3CC3)c3nc(-c4c(O)cccc4F)c(Cl)cc23)[C@@H](C)C1 [Example 44-2],IC50,[1]; MIA PaCa-2 cells,138 nM
same,IC50,[2],208 nM
C=CC(=O)N1CCN(c2nc(=O)n(-c3c(C)ccnc3C3CC3)c3nc(-c4c(O)cccc4F)c(Cl)cc23)[C@@H](C)C1 [Example 44-1],IC50,[1]; MIA PaCa-2 cells,25 nM
same,IC50,[2],33 nM
"C=CC(=O)N1CCN(c2nc(=O)n(-c3ccccc3C(C)C)c3nc(-c4ccccc4F)c(Cl)nc23)[C@@H](C)C1 (single isomer, unassigned) [Example 50-1]",IC50,[2],117 nM
"C=CC(=O)N1CCN(c2nc(=O)n(-c3ccccc3C(C)C)c3nc(-c4ccccc4F)c(Cl)nc23)[C@@H](C)C1 [Example 50, 6-Chloro-7-(2-fluorophenyl)-4-((2S)-2-methyl-4-(2-propenoyl)-1-piperazinyl)-1-(2-(2-propanyl)phenyl)-2(1H)-pteridinone]",IC50,[2],276 nM
"C=CC(=O)N1CCN(c2nc(=O)n(-c3c(C)ccnc3C(C)C)c3nc(-c4c(O)cccc4F)c(F)cc23)[C@@H](C)C1 [Example 41, 6-Fluoro-7-(2-fluoro-6-hydroxyphenyl)-1-(4-methyl-2-(2-propanyl)-3-pyridinyl)-4-((2S)-2-methyl-4-(2-propenoyl)-1-piperazinyl)pyrido[2,3-d]pyrimidin-2(1H)-one]",IC50,[1]; MIA PaCa-2 cells,85 nM
"C=CC(=O)N1CCN(c2nc(=O)n(-c3c(C)ccnc3C(C)C)c3nc(-c4c(O)cccc4F)c(F)cc23)[C@@H](C)C1 [Example 41-2, 6-fluoro-7-(2-fluoro-6-hydroxyphenyl)-1-(4-methyl-2-(2-propanyl)-3-pyridinyl)-4-((2S)-2-methyl-4-(2-propenoyl)-1-piperazinyl)pyrido-[2,3-d]pyrimidin-2(1H)-one]",IC50,[1]; MIA PaCa-2 cells,1660 nM
"C=CC(=O)N1CCN(c2nc(=O)n(-c3ccccc3C(C)(C)C)c3nc(-c4c(O)cccc4F)c(Cl)cc23)[C@@H](C)C1 (single isomer, unassigned) [Example 49-2]",IC50,[1]; MIA PaCa-2 cells,51 nM
same,IC50,[2],117 nM
"C=CC(=O)N1CCN(c2nc(=O)n(-c3ccccc3C(C)C)c3nc(-c4ccccc4F)c(C)nc23)[C@@H](C)C1 (single isomer, unassigned) [Example 51-2]",IC50,[2],221 nM
"C=CC(=O)N1CCN(c2nc(=O)n(-c3ccccc3C(C)C)c3nc(-c4c(O)cccc4F)c(C)cc23)[C@@H](C)C1 (single isomer, unassigned) [Example 52-2]",IC50,[2],146 nM
"C=CC(=O)N1CCN(c2nc(=O)n(-c3c(C)ccnc3CC)c3nc(-c4ccccc4F)c(Cl)cc23)[C@@H](C)C1 [Example 46, 6-Chloro-1-(2-ethyl-4-methyl-3-pyridinyl)-7-(2-fluorophenyl)-4-((2S)-2-methyl-4-(2-propenoyl)-1-piperazinyl)pyrido[2,3-d]pyrimidin-2(1H)-one]",IC50,[1]; MIA PaCa-2 cells,169 nM
same,IC50,[2],493 nM
"C=CC(=O)N1CCN(c2nc(=O)n(-c3ccccc3C(C)C)c3nc(-c4c(O)cccc4F)c(C)cc23)[C@@H](C)C1 (single isomer, unassigned) [Example 52-1]",IC50,[2],5990 nM
"C=CC(=O)N1CCN(c2nc(=O)n(-c3c(C(C)C)ncnc3C(C)C)c3nc(-c4ccccc4F)c(Cl)cc23)[C@@H](C)C1 [Example 43, 6-Chloro-1-(4,6-di(2-propanyl)-5-pyrimidinyl)-7-(2-fluorophenyl)-4-((2S)-2-methyl-4-(2-propenoyl)-1-piperazinyl)pyrido[2,3-d]pyrimidin-2(1H)-one]",IC50,[1]; [3],34 nM
same,IC50,[2],38 nM
"C=CC(=O)N1CCN(c2nc(=O)n(-c3c(C)ccnc3C3CC3)c3nc(-c4ccccc4F)c(Cl)cc23)[C@@H](C)C1 [Example 45, 6-Chloro-1-(2-cyclopropyl-4-methyl-3-pyridinyl)-7-(2-fluorophenyl)-4-((2A)-2-methyl-4-(2-propenoyl)-1-piperazinyl)pyrido[2,3-d]pyrimidin-2(1H)-one]",IC50,[1]; MIA PaCa-2 cells,62 nM
same,IC50,[2],319 nM
"C=CC(=O)N1CCN(c2nc(=O)n(-c3c(C)ccnc3C3CC3)c3nc(-c4c(O)cccc4F)c(F)cc23)[C@@H](C)C1 [Example 42-2, 1-(2-cyclopropyl-4-methyl-3-pyridinyl)-6-fluoro-7-(2-fluoro-6-hydroxyphenyl)-4-((2S)-2-methyl-4-(2-propenoyl)-1-piperazinyl)pyrido-[2,3-d]pyrimidin-2(1H)-one]",IC50,[2],1560 nM
"C=CC(=O)N1CCN(c2nc(=O)n(-c3c(C)ccnc3C3CC3)c3nc(-c4c(O)cccc4F)c(F)cc23)[C@@H](C)C1 [Example 42-1, 1-(2-cyclopropyl-4-methyl-3-pyridinyl)-6-fluoro-7-(2-fluoro-6-hydroxyphenyl)-4-((2S)-2-methyl-4-(2-propenoyl)-1-piperazinyl)pyrido-[2,3-d]pyrimidin-2(1H)-one]",IC50,[1]; MIA PaCa-2 cells,103 nM
same,IC50,[2],150 nM
"C=CC(=O)N1CCN(c2nc(=O)n(-c3c(C)ccnc3C(C)C)c3nc(-c4ccccc4F)c(Cl)cc23)[C@@H](C)C1 [Example 40-1, 6-chloro-7-(2-fluoro-phenyl)-1-(4-methyl-2-(2-propanyl)-3-pyridinyl)-4-((2S)-2-methyl-4-(2-propenoyl)-1-piperazinyl)pyrido-[2,3-d]pyrimidin-2(1H)-one]",IC50,[1]; MIA PaCa-2 cells,22 nM
same,IC50,[2],57 nM
"C=CC(=O)N1CCN(c2nc(=O)n(-c3ccccc3C(C)C)c3nc(-c4ccccc4F)c(C)nc23)[C@@H](C)C1 [Example 51, 7-(2-Fluorophenyl)-6-methyl-4-((2A)-2-methyl-4-(2-propenoyl)-1-piperazinyl)-1-(2-(2-propanyl)phenyl)-2(1H)-pteridinone]",IC50,[1]; MIA PaCa-2 cells,440 nM
same,IC50,[2],538 nM
"C=CC(=O)N1CCN(c2nc(=O)n(-c3c(C)ccnc3CC)c3nc(-c4ccccc4F)c(Cl)cc23)[C@@H](C)C1 [Example 46-1, 6-chloro-1-(2-ethyl-4-methyl-3-pyridinyl)-7-(2-fluorophenyl)-4-((2S)-2-methyl-4-(2-propenoyl)-1-piperazinyl)pyrido-[2,3-d]pyrimidin-2(1H)-one]",IC50,[1]; MIA PaCa-2 cells,126 nM
same,IC50,[2],170 nM
C=CC(=O)N1CCN(c2nc(=O)n(-c3c(C)ccnc3C3CC3)c3nc(-c4c(O)cccc4F)c(Cl)cc23)[C@@H](C)C1 [Example 44],IC50,[1]; MIA PaCa-2 cells,65 nM
same,IC50,[2],103 nM
"C=CC(=O)N1CCN(c2nc(=O)n(-c3c(C)cnn3C(C)C)c3nc(-c4ccccc4F)c(Cl)cc23)[C@@H](C)C1 (single isomer, unassigned) [Example 53-1]",IC50,[1]; MIA PaCa-2 cells,93 nM
same,IC50,[2],98 nM
"C=CC(=O)N1CCN(c2nc(=O)n(-c3c(C)ccnc3C(C)C)c3nc(-c4c(O)cccc4F)c(F)cc23)[C@@H](C)C1 [Example 41-1, 6-fluoro-7-(2-fluoro-6-hydroxyphenyl)-1-(4-methyl-2-(2-propanyl)-3-pyridinyl)-4-((2S)-2-methyl-4-(2-propenoyl)-1-piperazinyl)pyrido-[2,3-d]pyrimidin-2(1H)-one]",IC50,[1]; MIA PaCa-2 cells,72 nM
"C=CC(=O)N1CCN(c2nc(=O)n(-c3ccccc3C(C)C)c3nc(-c4ccccc4F)c(C)nc23)[C@@H](C)C1 (single isomer, unassigned) [Example 51-1]",IC50,[2],11200 nM
"C=CC(=O)N1CCN(c2nc(=O)n(-c3ccccc3C(C)C)c3nc(-c4ccccc4F)c(Cl)nc23)[C@@H](C)C1 (single isomer, unassigned) [Example 50-2]",IC50,[2],3690 nM
"C=CC(=O)N1CCN(c2nc(=O)n(-c3ccccc3C(C)C)c3nc(-c4c(O)cccc4F)c(C)cc23)[C@@H](C)C1 [Example 52, 7-(2-fluoro-6-hydroxyphenyl)-6-methyl-4-((2S)-2-methyl-4-(2-propenoyl)-1-piperazinyl)-1-(2-(2-propanyl)phenyl)pyrido[2,3-d]pyrimidin-2(1H)-one]",IC50,[2],338 nM
"C=CC(=O)N1CCN(c2nc(=O)n(-c3ccccc3C(C)(C)C)c3nc(-c4c(O)cccc4F)c(Cl)cc23)[C@@H](C)C1 (single isomer, unassigned) [Example 49-1]",IC50,[2],2580 nM
